We go through 15 compounds from patent US11643417B2, “Tetrahydrobenzofurodiazepinone compound and pharmaceutical use thereof” (priority 2020, dated 2023).

In one assay the target is human Pim-1 (Homo sapiens (Human), UniProt P11309). As to the kind of experiment: biochemical. In kind it is biochemical. Particulars: Ki converted from IC50; purified human Pim-1, Pim2tide substrate, ADP-Glo; read-out: hPim1 Ki. For orientation: In ADP-Glo the light output rises with the ADP produced.
Assay [1] deals with mouse cancer-bearing model. Particulars: Non-Patent Documents 16 and 17; cited from earlier work.
The test system of the next assay is mouse LN model animals. Particulars: Non-Patent Document 18; cited from earlier work.
In assay [2] the test system is cells derived from chronic myelogenous leukemia. Particulars: Non-Patent Document 15; cited from earlier work.

Structures are written as SMILES.

Chain of human Pim-1 (P11309 whole entry): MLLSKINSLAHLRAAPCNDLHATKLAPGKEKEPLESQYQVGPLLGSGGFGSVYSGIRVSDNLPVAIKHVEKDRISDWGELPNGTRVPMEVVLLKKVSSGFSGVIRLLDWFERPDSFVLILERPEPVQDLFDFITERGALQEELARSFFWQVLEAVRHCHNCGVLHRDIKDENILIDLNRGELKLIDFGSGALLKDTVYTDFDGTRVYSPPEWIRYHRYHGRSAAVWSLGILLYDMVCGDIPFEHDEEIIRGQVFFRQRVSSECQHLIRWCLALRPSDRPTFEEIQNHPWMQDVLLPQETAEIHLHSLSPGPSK

By Ki is commonly meant a measure of affinity in units of concentration, obtained from inhibition or displacement. For the compound `O=C1NC2(CC2)CN(CC[C@@H]2CO[C@@H](CO)CO2)c2c1oc1ccc(C(F)(F)F)cc21` [Example 152], on human Pim-1, the Ki is 92.9 pM.
For `O=C1NC2(CC2)CN(CC[C@@H]2CO[C@H](CO)CO2)c2c1oc1ccc(C(F)(F)F)cc21` [Example 153], the Ki at human Pim-1 turned out to be 302 pM.
With `O=C1NC2(CC2)CN(CC[C@H]2CO[C@@H](CO)CO2)c2c1oc1ccc(C(F)(F)F)cc21` [Example 154], on human Pim-1, the Ki is 302 pM.
For `O=C1NC2(CC2)CN(CC[C@H]2CO[C@H](CO)CO2)c2c1oc1ccc(C(F)(F)F)cc21` [Example 155], the Ki at human Pim-1 is 221 pM.
With `O=C1NC2(CC2)CN(CC[C@@H]2CO[C@H](CF)CO2)c2c1oc1ccc(C(F)(F)F)cc21` [Example 156], the Ki on human Pim-1 turned out to be 10.3 pM.
The same measure, in the same setting: the value for `O=C1NC2(CC2)CN(CC[C@H]2CO[C@@H](CF)CO2)c2c1oc1ccc(C(F)(F)F)cc21` [Example 157] was 234 pM.
As for `CS(=O)(=O)C[C@@H]1CO[C@@H](CCN2CC3(CC3)NC(=O)c3oc4ccc(C(F)(F)F)cc4c32)CO1` [Example 159], the inhibitory constant (Ki) at human Pim-1 stood at 164 pM.
Same read-out and setting: the value for `O=C1NC2(CC2)CN(CC(F)(F)C2CCS(=O)(=O)CC2)c2c1oc1ccc(C(F)(F)F)cc21` [Example 160] was 98.2 pM; that for `CS(=O)(=O)C[C@H]1CO[C@H](CCN2CC3(CC3)NC(=O)c3oc4ccc(C(F)(F)F)cc4c32)CO1` [Example 161] was 188 pM.
As for `N#CC1(CO)CCC(CCN2CCNC(=O)c3oc4ccc(C(F)(F)F)cc4c32)CC1` (stereo not drawn) [Example 163], the inhibitory constant (Ki) on human Pim-1 was found to be 44.5 pM.
On to `O=C1NC2(CC2)CN(CC(F)(F)[C@H]2CO[C@H](CO)CO2)c2c1oc1ccc(C(F)(F)F)cc21` [Example 164], for which the Ki at human Pim-1 worked out at 19.3 pM.
As to `O=C1NCCN(CC(F)(F)[C@H]2CC[C@H](O)CC2)c2c1oc1ccc(C(F)(F)F)cc21` [Example 165], the Ki at human Pim-1 worked out at 104 pM.
For `O=C1CCC(C(F)(F)CN2CCNC(=O)c3oc4ccc(C(F)(F)F)cc4c32)CC1` [Example 166], on human Pim-1, the Ki stood at 189 pM.
Take `C[C@H]1CN(c2c(NC(=O)c3ccc(F)c(-c4c(F)cccc4F)n3)cnc3c2CC[C@H]3O)C[C@@H](N)[C@@H]1O` [INCB053914]: the “tumor growth inhibitory effect” value in assay [1] is recorded as “tumor growth inhibitory effect”.
As for `O=C1NC(=O)/C(=C/c2cccc(C(F)(F)F)c2)S1` [SMI-4a], in the assay with mouse LN model animals, the glomerular damage result is recorded as “reduce glomerular damage”, the mortality entry is “improve mortality” and the urinary albumin/creatinine ratio entry is “reduce urinary albumin/creatinine ratio”. Besides, the “growth inhibitory and apoptosis-inducing effects” value in assay [2] is “growth inhibitory and apoptosis-inducing effects”.
